Measurements: US20220079924A1, “GLUCOCORTICOID RECEPTOR MODULATORS” (ORIC Pharmaceuticals, Inc., priority 2018, published 2022)

target: T1, GR (Homo sapiens, UniProt P04150); experiment: In Vitro GR Luciferase Reporter Assay (antagonist assay); assay type: cell-based; conditions: CHO-K1-GR-MMTV-Luc reporter cells, 10 nM Dexamethasone, 18-24 hours
T1 construct: expressed in transfected cells; host or cells: CHO-K1 (CHO-K1-GR-MMTV-Luc reporter cells)
T1 sequence (P04150 1-777): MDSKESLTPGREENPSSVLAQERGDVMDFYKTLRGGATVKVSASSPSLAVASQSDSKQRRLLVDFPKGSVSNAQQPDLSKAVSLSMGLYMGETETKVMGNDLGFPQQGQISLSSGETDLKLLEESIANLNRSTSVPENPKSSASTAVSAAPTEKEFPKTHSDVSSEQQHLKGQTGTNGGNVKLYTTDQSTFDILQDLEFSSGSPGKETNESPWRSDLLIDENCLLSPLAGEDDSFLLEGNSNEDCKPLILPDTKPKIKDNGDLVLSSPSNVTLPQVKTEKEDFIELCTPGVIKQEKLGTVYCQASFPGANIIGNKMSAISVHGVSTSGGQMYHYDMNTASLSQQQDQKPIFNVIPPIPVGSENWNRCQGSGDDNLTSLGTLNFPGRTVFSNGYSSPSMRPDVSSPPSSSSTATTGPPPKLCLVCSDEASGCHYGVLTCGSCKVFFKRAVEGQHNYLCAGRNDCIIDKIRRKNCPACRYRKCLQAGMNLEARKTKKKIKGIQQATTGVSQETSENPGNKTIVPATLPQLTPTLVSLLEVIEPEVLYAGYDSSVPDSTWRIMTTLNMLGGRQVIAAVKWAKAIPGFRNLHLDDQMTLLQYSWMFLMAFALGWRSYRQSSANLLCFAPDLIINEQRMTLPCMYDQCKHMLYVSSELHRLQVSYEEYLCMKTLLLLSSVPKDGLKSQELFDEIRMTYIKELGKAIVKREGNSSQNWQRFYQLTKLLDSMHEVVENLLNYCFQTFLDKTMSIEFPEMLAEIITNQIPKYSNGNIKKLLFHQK
Protocol: Example A: In Vitro GR Luciferase Reporter Assay
Cell Line: CHO-K1-GR-MMTV-Luc reporter cells
Culture Media: DMEM (with phenol red)+10% FBS
Assay Media: DMEM (without phenol red)+10% CSS
Culture CHO-K1-GR-MMTV-Luc reporter cells in T175 flasks in Culture Media at conditions less than 90% confluence.
Using Bravo (Agilent) liquid handler:
200× DMSO 1:3 serial dilutions of control and test compounds in 96-well non-sterile V bottom plate in DMSO, 12 points for each compound were prepared.
Prepared 5× compound serial dilutions: Add 97.5 μL/well of Assay Media into 96-well non-sterile V bottom plate then added 2.5 ul of 200× concentration of compounds and mix well.
Seeded cells for Antagonist Assay: 5200 CHO-K1-GR-MMTV-Luc reporter cells were seeded in Greiner #781080 flat clear bottom 384-well white TC plate in 20 ul of Assay Media containing 12.5 nM Dexamethasone (final concentration=10 nM).
Added compounds: 5 μl of 5× compounds were added to appropriate wells and followed with a quick spin (1000 rpm, 10 sec) to bring media and cells to the bottom of plate. The plates were covered with SealMate film to avoid evaporation and placed in 37° C. incubator for approximately 18-24 hours.
Read plates: Equilibrate appropriate amount of Promega OneGlo luciferase reagent to room temperature. Remove the plates from incubator and add 25 uL of OneGlo reagent/well by Bravo and read the plates on Tecan Spark plate reader within 15 minutes.
The ability of the compounds disclosed herein to inhibit GR activity was quantified and the respective IC50 value was determined. Table 1 provides the cellular IC50 values of compounds disclosed herein.

IC50, ≤ 100 nM:
Cn1cnc(S(=O)(=O)[C@H]2CCC3=Cc4c(cnn4-c4ccc(F)cc4)C[C@]3(C(=O)c3ccc(C4CC4)cn3)C2)n1 [Example 7, (5-Cyclopropylpyridin-2-yl)((4aS,6S)-1-(4-fluorophenyl)-6-((1-methyl-1H-1,2,4-triazol-3-yl)sulfonyl)-1,4,5,6,7,8-hexahydro-4aH-benzo[f]indazol-4a-yl)methanone]
Cn1cnc(S(=O)(=O)N(C2CC2)[C@H]2CCC3=Cc4c(cnn4-c4ccc(F)nc4)C[C@]3(C(=O)c3cc(C(F)(F)F)ccn3)C2)n1 [Example 11, N-cyclopropyl-N-((4aS,6S)-1-(6-fluoropyridin-3-yl)-4a-(4-(trifluoromethyl)picolinoyl)-4,4a,5,6,7,8-hexahydro-1H-benzo[f]indazol-6-yl)-1-methyl-1H-1,2,4-triazole-3-sulfonamide]
Cn1cc(S(=O)(=O)N(CCF)[C@H]2CCC3=Cc4c(cnn4-c4ccc(F)cc4)C[C@]3(C(=O)c3cc(Cl)ccn3)C2)cn1 [Example 29]
CCN([C@H]1CCC2=Cc3c(cnn3-c3ccc(F)nc3)C[C@]2(C(=O)c2cc(Cl)ccn2)C1)S(=O)(=O)c1ncn(C)n1 [Example 50]
Cn1cc(S(=O)(=O)C[C@H]2CCC3=Cc4c(cnn4-c4ccc(F)cc4)C[C@]3(C(=O)c3cc(Cl)ccn3)C2)cn1 [Example 26]
Cn1cc(S(=O)(=O)N(C2CC2)[C@H]2CCC3=Cc4c(cnn4-c4ccnc(F)c4)C[C@]3(C(=O)c3cc(C(F)(F)F)ccn3)C2)cn1 [Example 39]
Cn1cnc(S(=O)(=O)N([C@H]2CCC3=Cc4c(cnn4-c4ccc(F)cc4)C[C@]3(C(=O)c3cc(Cl)ccn3)C2)[C@H]2C[C@@](O)(C(F)(F)F)C2)n1 [Example 45]
CC(C)N([C@H]1CCC2=Cc3c(cnn3-c3ccc(F)cc3)C[C@]2(C(=O)c2cc(F)ccn2)C1)S(=O)(=O)c1cn(C)cn1 [Example 87]
C[C@H]([C@H]1CCC2=Cc3c(cnn3-c3ccc(F)cc3)C[C@]2(C(=O)c2cc(F)ccn2)C1)S(=O)(=O)c1ncn(C)n1 [Example 83]
O=C(c1ccc(C2CC2)cn1)[C@]12Cc3cnn(-c4ccc(F)cc4)c3C=C1CC[C@H](S(=O)(=O)c1ncn(CC(F)(F)F)n1)C2 [Example 95]
C[C@@H]([C@H]1CCC2=Cc3c(cnn3-c3ccc(F)cc3)C[C@]2(C(=O)c2ncc(C(F)(F)F)s2)C1)S(=O)(=O)c1ncn(C)n1 [Example 57]
Cn1cnc(S(=O)(=O)N(C2CC2)[C@H]2CCC3=Cc4c(cnn4-c4ccc(F)cc4)C[C@]3(C(=O)c3ncc(C(C)(C)C)s3)C2)n1 [Example 46]
Cn1cnc(S(=O)(=O)N(CC(F)(F)F)[C@H]2CCC3=Cc4c(cnn4-c4ccc(F)nc4)C[C@]3(C(=O)c3cc(F)ccn3)C2)n1 [Example 78]
O=C(c1cc(Cl)ccn1)[C@]12Cc3cnn(-c4ccc(F)cc4)c3C=C1CC[C@H](N(CC(F)(F)F)S(=O)(=O)c1ccc(F)cc1)C2 [Example 53]
C[C@@H]([C@H]1CCC2=Cc3c(cnn3-c3ccc(F)cc3)C[C@]2(C(=O)c2ccc(C(F)(F)F)cn2)C1)S(=O)(=O)c1cnn(C)c1 [Example 36]
CN(C)C(=O)CN([C@H]1CCC2=Cc3c(cnn3-c3ccc(F)cc3)C[C@]2(C(=O)c2cc(C(F)(F)F)ccn2)C1)S(=O)(=O)c1ccn(C)n1 [Example 21]
Cn1cnc(S(=O)(=O)N([C@H]2CCOC2)[C@H]2CCC3=Cc4c(cnn4-c4ccc(F)cc4)C[C@]3(C(=O)c3cc(C(F)(F)F)ccn3)C2)n1 [Example 33]
Cn1cnc(S(=O)(=O)N([C@H]2CCC3=Cc4c(cnn4-c4ccc(F)cc4)C[C@]3(C(=O)c3cc(Cl)ccn3)C2)[C@H]2C[C@](O)(C(F)(F)F)C2)n1 [Example 44]
O=C(c1cc(F)ccn1)[C@]12Cc3cnn(-c4ccc(F)cc4)c3C=C1CC[C@H](N(C1CC(F)(F)C1)S(=O)(=O)c1ccc(F)cc1)C2 [Example 23]
CCN([C@H]1CCC2=Cc3c(cnn3-c3ccc(F)nc3)C[C@]2(C(=O)c2cc(F)ccn2)C1)S(=O)(=O)c1ncn(C)n1 [Example 94]
Cn1ccc(S(=O)(=O)C(C)(C)[C@H]2CCC3=Cc4c(cnn4-c4ccc(F)cc4)C[C@]3(C(=O)c3cc(F)ccn3)C2)n1 [Example 8, ((4aR,6S)-1-(4-Fluorophenyl)-6-(2-((1-methyl-1H-pyrazol-3-yl)sulfonyl)propan-2-yl)-1,4,5,6,7,8-hexahydro-4aH-benzo[f]indazol-4a-yl)(4-fluoropyridin-2-yl)methanone]
Cn1cc(S(=O)(=O)N(Cc2ncco2)[C@H]2CCC3=Cc4c(cnn4-c4ccc(F)cc4)C[C@]3(C(=O)c3cc(C(F)(F)F)ccn3)C2)cn1 [Example 54]
O=C(c1cc(F)ccn1)[C@]12Cc3cnn(-c4ccc(F)cc4)c3C=C1CC[C@H](N(CC(F)(F)F)S(=O)(=O)c1ccc(F)cc1)C2 [Example 34]
Cn1cc(S(=O)(=O)N(CC(F)F)[C@H]2CCC3=Cc4c(cnn4-c4ccc(F)cc4)C[C@]3(C(=O)c3cc(C(F)(F)F)ccn3)C2)cn1 [Example 37]
Cn1ccc(S(=O)(=O)N(C2CC2)[C@H]2CCC3=Cc4c(cnn4-c4ccc(F)cc4)C[C@]3(C(=O)c3cc(Cl)ccn3)C2)c1 [Example 67]
Cn1ccc(S(=O)(=O)N(C2CC2)[C@H]2CCC3=Cc4c(cnn4-c4ccc(F)cc4)C[C@]3(C(=O)c3cc(F)ccn3)C2)c1 [Example 58]
Cn1cc(S(=O)(=O)N(C2CC2)[C@H]2CCC3=Cc4c(cnn4-c4ccc(F)cn4)C[C@]3(C(=O)c3cc(C(F)(F)F)ccn3)C2)cn1 [Example 74]
Cn1cc(S(=O)(=O)N(C2CC(F)(F)C2)[C@H]2CCC3=Cc4c(cnn4-c4ccc(F)cc4)C[C@]3(C(=O)c3cc(Cl)ccn3)C2)cn1 [Example 13]
